Square brackets hold non-standard residues; d marks the D form. Ends that are not written are not given here. pGlu = O=C1CC[C@@H](C(=O)O)N1; Nle = CCCC[C@H](N)C(=O)O
system: bombesin receptor; assay: competitive binding assay, 125I-Bombesin, rat brain membranes; conditions: not given
Method: Rat brain membranes were utilized as the source of bombesin receptor. The competitive binding assay was performed using a procedure as described by Moody T W, Perk C B, Rivier J, Brown, M R. (Proc Natl Acad Sci USA. 75:5372-5376, […]) and adapted to a 96 well format. An aliquot of membranes taken in assay buffer (50 mM Tris and HCl, pH 7.4 containing 1 mg/mL BSA and 2 μg/mL bacitracin) was incubated with 0.01 nM of ^125I-Bombesin with or without varying concentrations of the test compound for 60 min at 4° C. The incubation was terminated by rapid filtration of the assay mixture, followed by washing the filters with ice-cold buffer. The filters were dried and counted in a gamma counter for retained radioactivity. Non-specific binding was measured by including 1 μM Bombesin in the assay tube. The assay was performed in triplicate and results calculated to determine percentage inhibition of the ^125I-Bombesin binding to its receptors by a test compound. The parent polypeptide is shown in Table 6, with metallopeptides having Cys inserted as shown.

Question: Which “binding to bombesin receptor, in words” value does the source give for “D-Phe-Gln-Cys-Ala-Val-Gly-His-Leu-Leu-NH2 ([dF]QCAVGHLL-NH2; also: oxorhenium(V) N3S1 tetradentate complex via Cys) [9-7]” here?
Answer: The value was “least activity”.

Question: Which “binding to bombesin receptor, in words” value does the source give for “Gln-Trp-Ala-Val-Cys-NH2 (QWAVC-NH2; not fully specified (bridges); printed as Gln-Trp-Ala-Val-Cys-NH2; also: oxorhenium(V) N3S1 chelate (Re(V)=O)) [11-13]” here?
Answer: Its value is “high negative percent inhibition”.

Question: “D-Phe-Gln-Trp-Cys-Ala-Val-Gly-His-Leu-Leu-NH2 ([dF]QWCAVGHLL-NH2; also: rhenium complex (oxorhenium(V) N3S1 chelate via Cys)) [8-7]” was tested. Which “binding to bombesin receptor, in words” value did it give?
Answer: Its value is “least activity”.

same assay, conditions: inhibition of 0.01 nM 125I-Bombesin binding; rat brain membranes; test concentration not given

Question: How did the “% Inhibition” value turn out when “Trp-Ala-Val-Cys-NH2 (WAVC-NH2; not fully specified (bridges); printed as Trp-Ala-Val-Cys-NH2; also: oxorhenium(V) N3S1 chelate (Re=O) with Cys) [11-14]” was run?
Answer: The value was 8%.

Question: How did the “% Inhibition” value turn out when “Pyr-Gln-Arg-Leu-Gly-Asn-Gln-Trp-Ala-Val-Gly-His-Leu-Nle-Cys-NH2 ([pGlu]QRLGNQWAVGHL[Nle]C-NH2; numbers in words are those of the source; also: rhenium complex (oxorhenium(V) N3S1 tetradentate chelate via Re=O core)) [6-1]” was run?
Answer: Its value is 82%.

Question: “Pyr-Gln-Arg-Leu-Gly-Cys-Asn-Gln-Trp-Ala-Val-Gly-His-Leu-Nle-NH2 ([pGlu]QRLGCNQWAVGHL[Nle]-NH2; numbers in words are those of the source; also: rhenium complex (oxorhenium(V) N3S1 tetradentate chelate via Re=O core)) [6-10]” was tested. Which “% Inhibition” value did it give?
Answer: The value was 93%.

Question: “Pyr-Gln-Arg-Leu-Gly-Asn-Gln-Trp-Ala-Val-Gly-His-Cys-Leu-Nle-NH2 ([pGlu]QRLGNQWAVGHCL[Nle]-NH2; numbers in words are those of the source; also: rhenium complex (oxorhenium(V) N3S1 chelate via Cys)) [6-3]” was tested. Which “% Inhibition” value did it give?
Answer: The value was 71%.

Question: How did the “% Inhibition” value turn out when “Gln-Trp-Ala-Val-Cys-His-Leu-Leu-NH2 [11-4] (QWAVCHLL-NH2; not fully specified (bridges); printed as Gln-Trp-Ala-Val-Cys-His-Leu-Leu-NH2; also: oxorhenium(V) N3S1 chelate (Re(V)=O))” was run?
Answer: Its value is 25%.

Question: How did the “% Inhibition” value turn out when “Ala-Val-Cys-His-NH2 (AVCH-NH2; not fully specified (bridges); printed as Ala-Val-Cys-His-NH2; also: oxorhenium(V) N3S1 chelate (Re(V)=O)) [11-12]” was run?
Answer: The value was 5%.

Question: With “Pyr-Gln-Arg-Leu-Gly-Asn-Gln-Cys-Trp-Ala-Val-Gly-His-Leu-Nle-NH2 ([pGlu]QRLGNQCWAVGHL[Nle]-NH2; numbers in words are those of the source; also: oxorhenium(V) N3S1 chelate (Re(V)=O)) [6-8]” as the substance, how does the “% Inhibition” value read?
Answer: The value was 75%.

Question: How did the “% Inhibition” value turn out when “Trp-Ala-Val-Cys-His-Leu-Leu-NH2 (WAVCHLL-NH2; not fully specified (bridges); printed as Trp-Ala-Val-Cys-His-Leu-Leu-NH2; also: oxorhenium(V) N3S1 chelate (Re=O) with Cys) [11-5]” was run?
Answer: The value was 18%.

Question: For “D-Phe-Gln-Trp-Cys-Val-Gly-His-Leu-Leu-NH2 ([dF]QWCVGHLL-NH2; also: oxorhenium(V) N3S1 chelate complex (Re=O)) [9-6]”, which “% Inhibition” value is on record?
Answer: The value was 43%.

Question: For [dF]QWA[dV]CHLL-NH2 [10-3], which “% Inhibition” value is on record?
Answer: The value was 7%.

Question: “D-Phe-Gln-Trp-Ala-Val-Gly-His-Leu-Leu-Cys-NH2 ([dF]QWAVGHLLC-NH2; also: rhenium complex (oxorhenium(V) N3S1 chelate via Cys)) [8-1]” was tested. Which “% Inhibition” value did it give?
Answer: Its value is 39%.

Question: How did the “% Inhibition” value turn out when “Ac-Ala-Gln-Cys-Arg-Leu-Gly-Asn-Gln-Trp-Ala-Val-Gly-His-Leu-Nle-NH2 (Ac-AQCRLGNQWAVGHL[Nle]-NH2; also: oxorhenium(V) N3S1 tetradentate complex via Cys) [6-13]” was run?
Answer: Its value is 99%.

Question: How did the “% Inhibition” value turn out when “D-Phe-Gln-Trp-Val-Cys-His-Leu-Leu-NH2 ([dF]QWVCHLL-NH2; also: oxorhenium(V) N3S1 chelate complex (Re=O)) [12-4]” was run?
Answer: The value was 5%.

Question: With “D-Phe-Gln-Cys-Ala-Val-Gly-His-Leu-Leu-NH2 ([dF]QCAVGHLL-NH2; also: oxorhenium(V) N3S1 tetradentate complex via Cys) [9-7]” as the substance, how does the “% Inhibition” value read?
Answer: Its value is 19%.

Question: “D-Phe-Gln-Trp-Ala-Val-Gly-Cys-Leu-Leu-NH2 ([dF]QWAVGCLL-NH2; also: oxorhenium(V) N3S1 chelate via Cys (Re(V)=O)) [9-3]” was tested. Which “% Inhibition” value did it give?
Answer: The value was 70%.

Question: Which “% Inhibition” value does the source give for “Gln-Trp-Ala-Val-Cys-His-Leu-Leu-NH2 [11-7] (QWAVCHLL-NH2; not fully specified (bridges); printed as Gln-Trp-Ala-Val-Cys-His-Leu-Leu-NH2; also: oxorhenium(V) N3S1 chelate (Re(V)=O))” here?
Answer: The value was 5%.

Question: With “D-Phe-Gln-Trp-Ala-Cys-Val-His-Leu-Leu-NH2 ([dF]QWACVHLL-NH2; also: rhenium complex (oxorhenium(V) N3S1 chelate via Cys)) [12-2]” as the substance, how does the “% Inhibition” value read?
Answer: Its value is 3%.

Question: How did the “% Inhibition” value turn out when “Pyr-Gln-Arg-Leu-Gly-Asn-Cys-Gln-Trp-Ala-Val-Gly-His-Leu-Nle-NH2 ([pGlu]QRLGNCQWAVGHL[Nle]-NH2; numbers in words are those of the source; also: oxorhenium(V) N3S1 chelate (Re(V)=O)) [6-9]” was run?
Answer: The value was 91%.

Question: Which “% Inhibition” value does the source give for “D-Phe-Gln-Trp-Ala-Val-Gly-His-Cys-Leu-NH2 ([dF]QWAVGHCL-NH2; also: rhenium complex (oxorhenium(V) N3S1 chelate via Cys)) [9-2]” here?
Answer: Its value is 35%.

Question: With “D-Phe-Gln-Trp-Ala-Val-Gly-His-Cys-Leu-Leu-NH2 ([dF]QWAVGHCLL-NH2; also: rhenium complex (oxorhenium(V) N3S1 chelate via Cys)) [8-3]” as the substance, how does the “% Inhibition” value read?
Answer: Its value is 49%.

Question: Which “% Inhibition” value does the source give for “Pyr-Gln-Arg-Leu-Gly-Asn-Gln-Trp-Ala-Val-Gly-Cys-His-Leu-Nle-NH2 ([pGlu]QRLGNQWAVGCHL[Nle]-NH2; numbers in words are those of the source; also: oxorhenium(V) N3S1 chelate (Re=O) with Cys) [6-4]” here?
Answer: The value was 70%.

Question: Which “% Inhibition” value does the source give for “Pyr-Gln-Arg-Leu-Gly-Asn-Gln-Trp-Ala-Val-Cys-Gly-His-Leu-Nle-NH2 ([pGlu]QRLGNQWAVCGHL[Nle]-NH2; numbers in words are those of the source; also: oxorhenium(V) N3S1 chelate (Re=O) with Cys) [6-5]” here?
Answer: Its value is 67%.

Question: Which “% Inhibition” value does the source give for “Gln-Trp-Ala-Val-Cys-NH2 (QWAVC-NH2; not fully specified (bridges); printed as Gln-Trp-Ala-Val-Cys-NH2; also: oxorhenium(V) N3S1 chelate (Re(V)=O)) [11-13]” here?
Answer: The value was −50%.

Question: How did the “% Inhibition” value turn out when “D-Phe-Gln-Trp-Cys-Ala-Val-Gly-His-Leu-Leu-NH2 ([dF]QWCAVGHLL-NH2; also: rhenium complex (oxorhenium(V) N3S1 chelate via Cys)) [8-7]” was run?
Answer: The value was 8%.

Question: Which “% Inhibition” value does the source give for “Pyr-Gln-Arg-Leu-Gly-Asn-Gln-Trp-Ala-Cys-Val-Gly-His-Leu-Nle-NH2 ([pGlu]QRLGNQWACVGHL[Nle]-NH2; numbers in words are those of the source; also: oxorhenium(V) N3S1 chelate (Re=O) with Cys) [6-6]” here?
Answer: Its value is 83%.

Question: How did the “% Inhibition” value turn out when “Pyr-Gln-Arg-Leu-Gly-Asn-Gln-Trp-Ala-Val-Gly-Cys-Leu-Nle-NH2 (QRLGNQWAVGCL; N-terminal pyroglutamate; C-terminal Nle-amide; printed: Gln-Arg-Leu-Gly-Asn-Gln-Trp-Ala-Val-Gly-Cys-Leu-) [7-3]” was run?
Answer: The value was 82%.

Question: Which “% Inhibition” value does the source give for “Ala-Val-Cys-NH2 (not fully specified (bridges); printed as Ala-Val-Cys-NH2; also: oxorhenium(V) N3S1 chelate (Re(V)=O)) [11-15]” here?
Answer: Its value is 4%.

Source: patent US7351690B2, “Knockout identification of target-specific sites in peptides” (priority 2000, dated 2008)
